{
  "source": "ChEMBL document CHEMBL1201862",
  "about": "“PubChem BioAssay data set” (2004)",
  "test_in_all_cases": "NCI anticancer screen, dose series, 48 h",
  "key": {"MDA-N": {"system": "MDA-N"}, "HCC 2998": {"system": "HCC 2998"}, "HCT-116": {"system": "HCT-116"}, "HCT-15": {"system": "HCT-15"}, "T47D": {"system": "T47D"}, "NCI/ADR-RES": {"system": "NCI/ADR-RES"}, "UO-31": {"system": "UO-31"}, "NCI-H23": {"system": "NCI-H23"}, "SF-295": {"system": "SF-295"}, "786-0": {"system": "786-0"}, "HT-29": {"system": "HT-29"}, "SW-620": {"system": "SW-620"}, "M14": {"system": "M14"}, "DU-145": {"system": "DU-145"}, "OVCAR-5": {"system": "OVCAR-5"}, "PC-3": {"system": "PC-3"}, "SK-MEL-5": {"system": "SK-MEL-5"}, "COLO 205": {"system": "COLO 205"}, "SK-OV-3": {"system": "SK-OV-3"}, "ACHN": {"system": "ACHN"}, "Malme-3M": {"system": "Malme-3M"}, "SF-268": {"system": "SF-268"}, "A549": {"system": "A549"}, "KM12": {"system": "KM12"}, "NCI-H522": {"system": "NCI-H522"}, "A498": {"system": "A498"}, "SK-MEL-28": {"system": "SK-MEL-28"}, "RPMI-8226": {"system": "RPMI-8226"}, "SR": {"system": "SR"}, "UACC-62": {"system": "UACC-62"}, "SNB-75": {"system": "SNB-75"}, "OVCAR-8": {"system": "OVCAR-8"}, "EKVX": {"system": "EKVX"}, "MCF7": {"system": "MCF7"}, "IGROV-1": {"system": "IGROV-1"}, "BT-549": {"system": "BT-549"}, "NCI-H460": {"system": "NCI-H460"}, "NCI-H226": {"system": "NCI-H226"}, "HL-60": {"system": "HL-60"}, "MOLT-4": {"system": "MOLT-4"}, "LOX IMVI": {"system": "LOX IMVI"}, "MDA-MB-231": {"system": "MDA-MB-231"}, "K562": {"system": "K562"}, "UACC-257": {"system": "UACC-257"}, "RXF 393": {"system": "RXF 393"}, "TK-10": {"system": "TK-10"}, "OVCAR-3": {"system": "OVCAR-3"}, "OVCAR-4": {"system": "OVCAR-4"}, "SNB-19": {"system": "SNB-19"}, "Hs-578T": {"system": "Hs-578T"}, "CCRF-CEM": {"system": "CCRF-CEM"}, "MDA-MB-435": {"system": "MDA-MB-435"}, "CAKI-1": {"system": "CAKI-1"}, "HOP-62": {"system": "HOP-62"}, "U-251": {"system": "U-251"}, "SF-539": {"system": "SF-539"}, "SK-MEL-2": {"system": "SK-MEL-2"}, "SN12C": {"system": "SN12C"}},
  "note": "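1) Cells in 96-well plates. 2) Compound, 48 h, 5 concentrations. 3) Linear interpolation between surrounding doses. 4) Unreached endpoint = highest concentration. At the GI50, growth is halved.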 Activity calls are given as the source filed them. Rule as the data show it: active = GI50 up to about 1.1 µM and inactive = higher.",
  "data": [
    {"smiles": "NNC(=O)CCSc1ccccc1", "values": [
      {"measurement": "GI50", "setting": "MDA-N", "value": "> 100 µM (inactive)"},
      {"measurement": "GI50", "setting": "HCC 2998", "value": "> 100 µM (inactive)"},
      {"measurement": "GI50", "setting": "HCT-116", "value": "> 100 µM (inactive)"},
      {"measurement": "GI50", "setting": "HCT-15", "value": "> 100", "unit": "µM"},
      {"measurement": "GI50", "setting": "T47D", "value": "> 100 µM (inactive)"},
      {"measurement": "GI50", "setting": "NCI/ADR-RES", "value": "> 100 µM (inactive)"},
      {"measurement": "GI50", "setting": "UO-31", "value": "> 100 µM (inactive)"},
      {"measurement": "GI50", "setting": "NCI-H23", "value": "> 100 µM (inactive)"},
      {"measurement": "GI50", "setting": "SF-295", "value": "> 100 µM (inactive)"},
      {"measurement": "GI50", "setting": "786-0", "value": "> 100 µM (inactive)"},
      {"measurement": "GI50", "setting": "HT-29", "value": "> 100 µM (inactive)"},
      {"measurement": "GI50", "setting": "SW-620", "value": "> 100 µM (inactive)"},
      {"measurement": "GI50", "setting": "M14", "value": "> 100 µM (inactive)"},
      {"measurement": "GI50", "setting": "DU-145", "value": "> 100 µM (inactive)"},
      {"measurement": "GI50", "setting": "OVCAR-5", "value": "> 100 µM (inactive)"},
      {"measurement": "GI50", "setting": "PC-3", "value": "> 100 µM (inactive)"},
      {"measurement": "GI50", "setting": "SK-MEL-5", "value": "> 100 µM (inactive)"},
      {"measurement": "GI50", "setting": "COLO 205", "value": "> 100 µM (inactive)"},
      {"measurement": "GI50", "setting": "SK-OV-3", "value": "> 100 µM (inactive)"},
      {"measurement": "GI50", "setting": "ACHN", "value": "> 100 µM (inactive)"},
      {"measurement": "GI50", "setting": "Malme-3M", "value": "> 100 µM (inactive)"},
      {"measurement": "GI50", "setting": "SF-268", "value": "> 100 µM (inactive)"},
      {"measurement": "GI50", "setting": "A549", "value": "> 100 µM (inactive)"},
      {"measurement": "GI50", "setting": "KM12", "value": "> 100 µM (inactive)"},
      {"measurement": "GI50", "setting": "NCI-H522", "value": "> 100 µM (inactive)"},
      {"measurement": "GI50", "setting": "A498", "value": "> 100 µM (inactive)"},
      {"measurement": "GI50", "setting": "SK-MEL-28", "value": "> 100 µM (inactive)"},
      {"measurement": "GI50", "setting": "RPMI-8226", "value": "> 100 µM (inactive)"},
      {"measurement": "GI50", "setting": "SR", "value": "> 100 µM (inactive)"},
      {"measurement": "GI50", "setting": "UACC-62", "value": "> 100 µM (inactive)"},
      {"measurement": "GI50", "setting": "SNB-75", "value": "> 100 µM (inactive)"},
      {"measurement": "GI50", "setting": "OVCAR-8", "value": "> 100 µM (inactive)"},
      {"measurement": "GI50", "setting": "EKVX", "value": "> 100 µM (inactive)"},
      {"measurement": "GI50", "setting": "MCF7", "value": "> 100 µM (inactive)"},
      {"measurement": "GI50", "setting": "IGROV-1", "value": "> 100 µM (inactive)"},
      {"measurement": "GI50", "setting": "BT-549", "value": "> 100 µM (inactive)"},
      {"measurement": "GI50", "setting": "NCI-H460", "value": "> 100 µM (inactive)"},
      {"measurement": "GI50", "setting": "NCI-H226", "value": "> 100 µM (inactive)"},
      {"measurement": "GI50", "setting": "HL-60", "value": "> 100 µM (inactive)"},
      {"measurement": "GI50", "setting": "MOLT-4", "value": "> 100 µM (inactive)"},
      {"measurement": "GI50", "setting": "LOX IMVI", "value": "> 100 µM (inactive)"},
      {"measurement": "GI50", "setting": "MDA-MB-231", "value": "> 100 µM (inactive)"},
      {"measurement": "GI50", "setting": "K562", "value": "> 100 µM (inactive)"},
      {"measurement": "GI50", "setting": "UACC-257", "value": "> 100 µM (inactive)"},
      {"measurement": "GI50", "setting": "RXF 393", "value": "> 100 µM (inactive)"},
      {"measurement": "GI50", "setting": "TK-10", "value": "> 100 µM (inactive)"},
      {"measurement": "GI50", "setting": "OVCAR-3", "value": "> 100 µM (inactive)"},
      {"measurement": "GI50", "setting": "OVCAR-4", "value": "> 100 µM (inactive)"},
      {"measurement": "GI50", "setting": "SNB-19", "value": "> 100 µM (inactive)"},
      {"measurement": "GI50", "setting": "Hs-578T", "value": "> 100 µM (inactive)"},
      {"measurement": "GI50", "setting": "CCRF-CEM", "value": "> 100 µM (inactive)"},
      {"measurement": "GI50", "setting": "MDA-MB-435", "value": "> 100 µM (inactive)"},
      {"measurement": "GI50", "setting": "CAKI-1", "value": "> 100 µM (inactive)"},
      {"measurement": "GI50", "setting": "HOP-62", "value": "> 100 µM (inactive)"},
      {"measurement": "GI50", "setting": "U-251", "value": "> 100 µM (inactive)"},
      {"measurement": "GI50", "setting": "SF-539", "value": "> 100 µM (inactive)"},
      {"measurement": "GI50", "setting": "SK-MEL-2", "value": "> 100 µM (inactive)"},
      {"measurement": "GI50", "setting": "SN12C", "value": "> 100 µM (inactive)"}
    ]}
  ]
}
